{
  "source": "patent US20230372395A1",
  "about": "“CAR CELLS TARGETING AN INSERTED LIGAND” (Massachusetts Institute of Technology, priority 2022, published 2023)",
  "key": {"[1]": {"tested_on": "MSTO-211H tumors", "assay": "Xenograft study with human CAR T cells and intratumoral amph-FITC", "type": "in vivo", "experimental": "For xenograft studies, 6- to 12-week-old NOD.Cg-Prkdc^scidIL2rg^tm1Wj1/SzJ (NSG) mice (Jackson Laboratory) were inoculated with 3×10^6 MSTO-211H cells subcutaneously at the flank. Once tumors grew to ˜25 mm^2, mice were adoptively transferred with 10^7 CAR T cells IV via the tail vein. Intratumoral injection of 10 nmol amph-FITC was administered beginning the day after adoptive transfer, and continuing every 3 days.\n(§1) For all studies, tumor progression was monitored by caliper measurements. Survival was evaluated over time until tumors exceeded 200 mm^2 in area, were severely ulcerated >1 week, or experienced >20% weight loss. To monitor trafficking of Fluc-expressing CAR T cells, mice were injected subcutaneously at the scruff with 150 mg/kg D-luciferin K^+ Salt (Perkin-Elmer) and imaged on a Xenogen IVIS Spectrum. Prior to imaging, C57BL/6 mice were depilated on their back to improve signal sensitivity.\nFor quantification of human CAR T cells in the peripheral blood, spleen, and tumor, tissues were processed as described above, then stained with LIVE/DEAD Aqua, BUV496 anti-CD4 (clone SK3/Leu3a, BD Biosciences), BUV805 anti-CD8α (clone SK1, BD Biosciences), PE anti-myc tag (clone 9B11, Cell Signaling), and APC-Cy7 anti-CD45 (clone 2D1, BioLegend)."}, "[2]": {"tested_on": "B16F10 tumors", "assay": "CAR T cell expansion and tumor homing by bioluminescence imaging", "type": "in vivo, C57BL/6 mice", "source_text": "(§2) C57BL/6 WT, CD45.1^+, Batf3 KO, and Rag1 KO mice (Jackson Laboratory, 6 to 8 weeks old) were inoculated with 10^6 B16F10, 10^6 MC38, 10^6 TC-1, or 3×10^6 CT-2A tumor cells subcutaneously at the flank. Once tumors grew to ˜25 mm^2 in area, mice underwent a non-myeloablative 5 Gy dose of TBI administered by a [^137Cs] gamma radiation source, 24 hr prior to adoptive transfer of 10^7 CD45.1+ CAR T cells IV via the tail vein. One day later, mice were vaccinated subcutaneously at the tail base with 10 nmol DSPE-PEG2k-FITC (Creative PEGworks) and 25 μg cyclic di-GMP (Invivogen), and vaccinated for 3 total doses, once weekly. Intratumoral injection of 10 nmol amph-FITC was administered beginning the day after the first vaccination, and continuing every 3 days.\nas §1"}, "[3]": {"tested_on": "CT-2A glioblastoma cells", "assay": "Amph-FITC labeling of tumor cells in vitro, flow cytometry", "type": "cell-based, murine", "conditions": "100 nM, 30 min at 37° C.", "experimental": "(§3) Amph-FITC labeling and cytotoxicity studies: For in vitro labeling of tumor cells with amph-FITC, tumor cells were washed with 1×PBS and incubated at a cell density of 10^6 cells/mL for 30 minutes at 37° C. with DSPE-PEGx-FITC, where x=0, 1, 2, 3.4, 5, or 10 kDa (Creative PEGworks) in PBS. For cocultures, target cells were labeled simultaneously with 100 nM amph-FITC and CellTrace Violet (ThermoFisher); 20,000 target cells were seeded per well in a 96-well flat-bottom plate with CAR T cells at the indicated effector-to-target ratios. Following a 16 hr incubation, cells were stained with SYTOX red (ThermoFisher) for flow cytometry, and IFN-γ in the supernatant was quantified using a Mouse IFN gamma Uncoated ELISA Kit (Invitrogen)."}, "[4]": {"assay": "Toxicity of amph-FITC and FITC CAR T therapy in tumor-bearing mice", "type": "in vivo, C57BL/6 mice", "source_text": "as §2, §1"}, "[5]": {"tested_on": "CT-2A tumors", "assay": "T cell infiltration of treated tumors, immunohistochemistry", "type": "in vivo, C57BL/6 mice", "conditions": "day 12, i.t. amph-FITC ± amph-FITC vaccine", "source_text": "as §2"}, "[6]": {"tested_on": "B16F10 tumors", "description": "For cellular localization studies, MC38 tumor-bearing mice were injected intratumorally with 10 nmol DSPE-PEG2k-FITC, and 24 hr later tumors were enzymatically digested at 37° C. for 30 min with 1 mg/mL collagenase D and 0.2 mg/mL DNase I in complete RPMI media before mechanical dissociation through a 70 μm cell strainer."}, "[7]": {"tested_on": "CT-2A tumors", "assay": "In vivo therapy study, tumor growth and survival", "set-up": "species or system C57BL/6 mice", "conditions": "intratumoral once every 6 days instead of every 3 days", "source_text": "as §2, §1"}, "[8]": {"tested_on": "B16F10 tumors", "assay": "In vivo therapy study, tumor growth and survival", "set-up": "species or system C57BL/6 mice", "conditions": "addition of amph-FITC vaccine boosting to E2-28z CAR T cells + intratumoral amph-FITC", "source_text": "as §2, §1"}, "[9]": {"tested_on": "B16F10 melanomas", "assay": "Bilateral flank tumors, i.t. amph-FITC only in the 1° lesion", "type": "in vivo, C57BL/6 mice", "source_text": "as §2, §1"}, "[10]": {"tested_on": "CT-2A tumors", "assay": "Bilateral flank tumors, i.t. amph-FITC only in the 1° lesion", "type": "in vivo, C57BL/6 mice", "conditions": "FITC-CAR T cells, amph-FITC vaccination, i.t. amph-FITC right flank only", "source_text": "as §2, §1"}, "[11]": {"tested_on": "B16F10 murine melanoma cells", "assay": "Amph-FITC labeling of tumor cells in vitro, flow cytometry", "type": "cell-based", "conditions": "incubated 30 min at 37° C.", "experimental": "as §3"}, "[12]": {"tested_on": "MC38 murine colon carcinoma cells", "assay": "Amph-FITC labeling of tumor cells in vitro, flow cytometry", "type": "cell-based", "conditions": "100 nM, 30 min at 37° C.", "experimental": "as §3"}, "[13]": {"conditions": "injection of only the primary tumor"}},
  "data": [
    {"substance": "1,2-distearoyl-sn-glycero-3-phosphoethanolamine-PEG-FITC [amph-FITC]", "values": [
      {"measurement": "graft vs. host disease", "setting": "[1]; mouse, in vivo", "result": "exacerbated GVHD"},
      {"measurement": "relative expansion of CAR T cells induced by amph-FITC treatment", "setting": "[1]; whole mouse radiance", "result": 13.3, "unit": "fold"},
      {"measurement": "impact on overall T cell expansion or accumulation at the tumor site", "setting": "[2]; addition of the vaccine boost to intratumoral amph-FITC", "result": "did not have a significant impact"},
      {"measurement": "CAR T cell expansion (bioluminescence)", "setting": "[2]; i.t. amph-FITC with E2-28z CAR T cells", "result": "triggered CAR T cell expansion"},
      {"measurement": "CAR T cell accumulation at the tumor site", "setting": "[2]; intratumoral amph-FITC compared with amph-FITC vaccination alone", "result": "greater accumulation at the tumor site"},
      {"measurement": "association with and exposure on cell surfaces", "setting": "[3]", "result": "associate with and be exposed on the surfaces"},
      {"measurement": "body weight", "setting": "[4]; CAR T cells with intratumoral amph-FITC and amph-FITC vaccination, versus untreated control", "result": "no weight loss"},
      {"measurement": "inflammation of the skin surrounding treated tumors", "setting": "[4]; local i.t. administration during treatment", "result": "no obvious inflammation"},
      {"measurement": "T cell infiltration of treated tumors", "setting": "[5]", "result": "substantial T cell infiltration throughout the tumor"},
      {"measurement": "cellular distribution of FITC labeling after lymphodepletion", "setting": "[6]; 5 Gy TBI 24 hours prior to amph-FITC injection", "result": "favored labeling of cancer cells in an even greater proportion"},
      {"measurement": "proportion of each cell type bearing extracellularly exposed FITC", "setting": "[6]; after 1 hour, cancer cells and host cells", "result": "40-60%"},
      {"measurement": "proportion of cells still bearing exposed FITC", "setting": "[6]; at 24 hours", "result": "20-40%"},
      {"measurement": "cell type numerically dominant among cells surface-decorated with FITC", "setting": "[6]; by 24 hours", "result": "majority of cells surface-decorated with FITC were the cancer cells"},
      {"measurement": "therapeutic effect at reduced injection frequency", "setting": "[7]", "result": "did not reduce the therapeutic effect"},
      {"measurement": "increase of median survival", "setting": "[8]", "result": 3, "unit": "days"},
      {"measurement": "growth of the treated primary tumor", "setting": "[9]; [13]", "result": "slowed growth"},
      {"measurement": "progression of the untreated lesions", "setting": "[9]; [13]", "result": "trend toward slowed progression"},
      {"measurement": "overall survival", "setting": "[9]; over untreated animals", "result": "substantial increases in overall survival"},
      {"measurement": "overall survival", "setting": "[10]", "result": "substantially improved"},
      {"measurement": "progression of injected (1°) and non-injected (2°) tumors", "setting": "[10]", "result": "substantially slowed progression"},
      {"measurement": "FITC exposed on the cell surfaces (anti-FITC antibody staining)", "setting": "[11]", "result": "exposed on the cell surfaces"},
      {"measurement": "association of amph-FITC with the cells (total FITC)", "setting": "[11]", "result": "dose-dependent association"},
      {"measurement": "association with and exposure on cell surfaces", "setting": "[12]", "result": "associate with and be exposed on the surfaces"}
    ]}
  ]
}
